The source of these data is article PMC2832311 (Journal of medicinal chemistry, 2009).

Assay [1] concerns the target T1, human 5-HT2C (INI) receptor (Homo sapiens, UniProt P28335).
T1 sequence (P28335 33-458): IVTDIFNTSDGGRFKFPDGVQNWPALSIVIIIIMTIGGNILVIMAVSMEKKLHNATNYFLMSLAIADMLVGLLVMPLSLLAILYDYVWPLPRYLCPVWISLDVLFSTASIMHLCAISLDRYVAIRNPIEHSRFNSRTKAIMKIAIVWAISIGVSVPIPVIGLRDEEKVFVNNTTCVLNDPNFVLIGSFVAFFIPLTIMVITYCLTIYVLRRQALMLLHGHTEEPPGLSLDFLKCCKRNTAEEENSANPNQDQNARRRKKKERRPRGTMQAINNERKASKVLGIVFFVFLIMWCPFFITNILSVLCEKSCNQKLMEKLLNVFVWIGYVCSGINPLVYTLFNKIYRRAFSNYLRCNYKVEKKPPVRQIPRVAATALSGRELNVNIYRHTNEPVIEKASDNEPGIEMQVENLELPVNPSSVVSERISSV
Put plainly: Calcium flux assay, 5-HT2C. The note with it: for 5-HT2C agonist efficacy (in words): calcium flux; for EC50: NA: Emax ≤ 12%; for Emax: read-out: 5-HT2C Emax, percent of maximal activation by 5-HT; for Selectivity 2A/2C / Selectivity 2B/2C: EC50 ratio.

For a further assay, the system named is MAO. The note with it: tryptamine potentiation model; cited from earlier work.
In another assay the target is human 5-HT2A receptor (Homo sapiens, UniProt P28223). Put plainly: Calcium flux assay, 5-HT2A. The following applies: for EC50: 5-HT2A EC50, HEK-293, NA: Emax ≤ 12%; for Emax: read-out: 5-HT2A Emax, percent of maximal activation by 5-HT. A general note: Calcium assays in cells follow changes in intracellular calcium, usually with a dye or a luminescent sensor.
The target in the next assay is human 5-HT2B receptor (Homo sapiens, UniProt P41595). The assay can be described thus: Calcium flux assay, 5-HT2B. The following applies: for EC50: 5-HT2B EC50, HEK-293, NA: Emax ≤ 12%; for Emax: read-out: 5-HT2B Emax, percent of maximal activation by 5-HT.
The next assay concerns C57BL/6J male mice. Put plainly: Mouse forced swim test. The class given is in vivo. The note with it: 30 min prior to testing.
Where [2] appears, read: Table 2 section 1 (independent campaign).
The mark [3] stands for this setting: Table 2 section 2 (independent campaign).
Setting [4] is: 5-HT2C EC50, HEK-293, Table 2 section 1.
[5] abbreviates: 5-HT2C EC50, HEK-293, Table 2 section 4.
The mark [6] stands for this setting: 5-HT2C EC50, HEK-293, Table 2 section 2.

“Also recorded” adds a separate entry of the source. Where two headings read alike, the source gives them in different places.

human 5-HT2A receptor, sequence (P28223 whole entry): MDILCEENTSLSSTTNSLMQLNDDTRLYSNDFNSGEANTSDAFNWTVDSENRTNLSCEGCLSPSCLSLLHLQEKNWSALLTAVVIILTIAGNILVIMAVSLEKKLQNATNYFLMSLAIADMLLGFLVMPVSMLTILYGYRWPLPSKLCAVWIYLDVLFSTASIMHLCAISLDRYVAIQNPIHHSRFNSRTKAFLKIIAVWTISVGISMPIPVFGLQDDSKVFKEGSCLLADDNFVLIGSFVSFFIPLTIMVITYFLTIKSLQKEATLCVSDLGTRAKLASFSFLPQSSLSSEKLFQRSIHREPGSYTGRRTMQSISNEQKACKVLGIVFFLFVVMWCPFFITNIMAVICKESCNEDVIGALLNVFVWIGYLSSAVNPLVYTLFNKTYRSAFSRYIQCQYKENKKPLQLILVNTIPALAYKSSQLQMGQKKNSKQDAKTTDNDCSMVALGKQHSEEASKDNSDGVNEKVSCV
human 5-HT2B receptor, sequence (P41595 whole entry): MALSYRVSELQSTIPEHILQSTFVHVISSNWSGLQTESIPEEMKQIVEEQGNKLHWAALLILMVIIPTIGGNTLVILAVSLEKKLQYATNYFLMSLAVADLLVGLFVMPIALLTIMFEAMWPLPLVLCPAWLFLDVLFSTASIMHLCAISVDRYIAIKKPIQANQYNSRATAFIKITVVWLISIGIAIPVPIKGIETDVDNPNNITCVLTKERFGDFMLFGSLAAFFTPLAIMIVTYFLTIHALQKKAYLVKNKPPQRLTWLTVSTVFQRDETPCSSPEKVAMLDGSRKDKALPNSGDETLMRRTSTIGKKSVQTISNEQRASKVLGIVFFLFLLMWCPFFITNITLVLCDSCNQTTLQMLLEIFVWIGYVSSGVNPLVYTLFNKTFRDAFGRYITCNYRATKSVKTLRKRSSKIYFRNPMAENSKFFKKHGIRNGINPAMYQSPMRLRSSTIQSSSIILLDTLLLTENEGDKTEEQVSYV

As for `N[C@@H]1C[C@H]1c1ccccc1` (racemic) [compound 9, tranylcypromine, reference compound], in assay [1], the “5-HT2C agonist efficacy (in words)” value is recorded as “full agonists”.
For `Cl.NC[C@@H]1C[C@H]1c1ccccc1` (relative stereo) [14a, trans-(2-Phenylcyclopropyl)methylamine Hydrochloride], the MAO inhibitory activity result with MAO is “devoid of MAO inhibitory activity”. Also, in assay [1], the “5-HT2C agonist efficacy (in words)” value was “full agonists”.
By EC50 is commonly meant the concentration needed to bring the measured effect to its halfway point. The term Emax denotes the size of the effect at its maximum, as opposed to the concentration needed. `CC(C)N[C@@H]1C[C@H]1c1ccccc1` (relative stereo) [compound 18, trans-N-Isopropyl-(2-phenylcyclopropyl)amine]: the EC50 in assay [1] (5-HT2C EC50, HEK-293 stably transfected, Table 1 section 2) stood at 3420 nM. For the same compound, the Emax in assay [1] (Table 1 section 2) stood at 18%.
Regarding `Cl.NC[C@H]1C[C@@H]1c1ccccc1F` (relative stereo) [compound 27, trans-[2-(2-Fluorophenyl)cyclopropyl]methylamine Hydrochloride], the EC50 at human 5-HT2A receptor (setting [2]) is over 1000 nM; at human 5-HT2A receptor (setting [3]), 942 nM; on human 5-HT2A receptor (Table 2 section 4 (independent campaign)), 681 nM; on human 5-HT2B receptor (Table 2 section 1), 1550 nM; at human 5-HT2B receptor (Table 2 section 2) it was 199 nM; in assay [1] (setting [4]) it was 37 nM. Besides, the EC50 in assay [1] (setting [5]) is 33 nM. Also, the Emax is 79% at human 5-HT2A receptor (Table 2 section 2); 62% on human 5-HT2A receptor (Table 2 section 4); 89% at human 5-HT2B receptor (Table 2 section 2); 84% at human 5-HT2B receptor (Table 2 section 4); 94% in assay [1] (Table 2 section 1). In addition, the “Selectivity 2A/2C” value in assay [1] (Table 2 section 1) was over 27; in assay [1] (Table 2 section 2) it was 32. For the same compound, the results for the “Selectivity 2B/2C” value in assay [1] (Table 2 section 1) and in assay [1] (Table 2 section 2) were 42 and 6.8, respectively.
On to `Cl.NC[C@H]1C[C@@H]1c1ccccc1Cl` (relative stereo) [compound 28, trans-[2-(2-Chlorophenyl)cyclopropyl]methylamine Hydrochloride], for which the half-maximal effective concentration (EC50) on human 5-HT2A receptor (setting [2]) is 403 nM; on human 5-HT2B receptor (Table 2 section 1), 84 nM; in assay [1] (setting [6]) it was 5.5 nM. The Emax at human 5-HT2A receptor (Table 2 section 2) was found to be 87%; in assay [1] (Table 2 section 1), 98%. Besides, the “Selectivity 2A/2C” value in assay [1] (Table 2 section 1) stood at 79. Moreover, in assay [1] (Table 2 section 1), the “Selectivity 2B/2C” value is on record as 16.
As to `Cl.NC[C@@H]1C[C@H]1c1ccccc1Br` (relative stereo) [compound 29, trans-[2-(2-Bromophenyl)cyclopropyl]methylamine Hydrochloride], the EC50 at human 5-HT2A receptor (setting [2]) was 585 nM. Moreover, the EC50 on human 5-HT2B receptor (Table 2 section 1) was found to be 154 nM. Also, the EC50 in assay [1] (setting [4]) was 2.8 nM. For the same compound, in assay [1] (Table 2 section 1), the “Selectivity 2A/2C” value was determined as 206, the “Selectivity 2B/2C” value was found to be 54 and the maximum response (Emax) came to 93%.
Consider `Cl.NC[C@H]1C[C@@H]1c1cccc(F)c1` (relative stereo) [compound 34, trans-[2-(3-Fluorophenyl)cyclopropyl]methylamine Hydrochloride], for which the EC50 at human 5-HT2A receptor (setting [2]) worked out at 1770 nM; on human 5-HT2A receptor (setting [3]), 733 nM; at human 5-HT2B receptor (Table 2 section 1) it was 51 nM; at human 5-HT2B receptor (Table 2 section 2), 13 nM; in assay [1] (setting [4]), 3.9 nM. In addition, the Emax is 73% at human 5-HT2A receptor (Table 2 section 4); 106% at human 5-HT2B receptor (Table 2 section 1); 96% on human 5-HT2B receptor (Table 2 section 2); 97% in assay [1] (Table 2 section 2); 96% in assay [1] (Table 2 section 4). The “Selectivity 2A/2C” value in assay [1] (Table 2 section 1) was 450; in assay [1] (Table 2 section 2), 225. Further, the entries for the “Selectivity 2B/2C” value in assay [1] (Table 2 section 1) and in assay [1] (Table 2 section 2) were 13 and 4.0, respectively.
In the case of `Cc1cccc([C@H]2C[C@@H]2CN)c1.Cl` (relative stereo) [compound 37, trans-[2-(3-Methylphenyl)cyclopropyl]methylamine Hydrochloride], the “immobility time (in words)” value in the assay on C57BL/6J male mice (10–60 mg/kg i.p., vs vehicle) is reported as “decreased immobility time; also recorded: significant decrease in immobility; also recorded: dose-dependent decrease in immobility time”.
For the compound `Cl.NC[C@H]1C[C@@H]1c1ccc(F)cc1` (relative stereo) [compound 41, trans-[2-(4-Fluorophenyl)cyclopropyl]methylamine Hydrochloride], the EC50 came out at 1100 nM at human 5-HT2A receptor (setting [2]); 646 nM on human 5-HT2A receptor (setting [3]); 312 nM on human 5-HT2B receptor (Table 2 section 1); 57 nM at human 5-HT2B receptor (Table 2 section 2); 8.4 nM in assay [1] (setting [6]); 11 nM in assay [1] (setting [5]). Further, the Emax at human 5-HT2A receptor (Table 2 section 2) was found to be 80%; on human 5-HT2A receptor (Table 2 section 4), 68%; at human 5-HT2B receptor (Table 2 section 1), 95%; in assay [1] (Table 2 section 4), 96%. In addition, the “Selectivity 2A/2C” value is reported as 202 in assay [1] (Table 2 section 1) and 77 in assay [1] (Table 2 section 2). Besides, the “Selectivity 2B/2C” value in assay [1] (Table 2 section 1) turned out to be 57; in assay [1] (Table 2 section 2), 6.8.
For the compound `Cl.NC[C@H]1C[C@@H]1c1ccc(C(F)(F)F)cc1` (relative stereo) [compound 45, trans-[2-(4-Trifluoromethylphenyl)cyclopropyl]methylamine Hydrochloride], the “Selectivity 2B/2C” value in assay [1] (Table 2 section 1) is over 1.
On to `Cl.NC[C@H]1C[C@@H]1c1ccccc1` [(+)-14a, (+)-trans-(S,S)-(2-Phenylcyclopropyl)methylamine Hydrochloride], for which the “5-HT2C agonist efficacy (in words)” value in assay [1] is “full agonists”.
Consider `Cl.NC[C@@H]1C[C@H]1c1ccccc1` [(−)-14a, (−)-trans-(R,R)-(2-Phenylcyclopropyl)methylamine Hydrochloride], for which the “Selectivity 2A/2C” value in assay [1] (Table 1 section 2) is over 10.
In the case of `C[C@H]1CNCCc2ccc(Cl)cc21` [compound 7, (1R)-8-chloro-2,3,4,5-tetrahydro-1-methyl-1H-3-benzazepine, reference compound], the Emax on human 5-HT2A receptor (Table 2 section 4) was 33%; in assay [1] (Table 2 section 4), 96%.
As for `CN[C@H]1CC[C@@H](c2ccc(Cl)c(Cl)c2)c2ccccc21` [compound 92, sertraline, reference compound], the “immobility time (in words)” value in the assay on C57BL/6J male mice (10 mg/kg i.p., positive control, p < 0.001) was “significant decrease in immobility; also recorded: significantly reduced the immobility time”.
